Legend:
Assay in all cases: KINOMEscan competition binding
PIK3C2G (human) = PIK3C2G (human) (UniProt O75747); conditions: compound 10.0 µM
CDK3 (human) = CDK3 (human) (UniProt Q00526); conditions: compound 10.0 µM
PAK6 (human) = PAK6 (human) (UniProt Q9NQU5); conditions: compound 10.0 µM
MAP3K12 (human) = MAP3K12 (human) (UniProt Q12852); conditions: compound 10.0 µM
[1] = tested on: FGFR3 (human), P22607 [G697C]; conditions: compound 10.0 µM
FGFR1 (human) = FGFR1 (human) (UniProt P11362); conditions: compound 10.0 µM
TBK1 (human) = TBK1 (human) (UniProt Q9UHD2); conditions: compound 10.0 µM
NEK2 (human) = NEK2 (human) (UniProt P51955); conditions: compound 10.0 µM
Chain of NEK2 (human) (P51955 whole entry, looked up): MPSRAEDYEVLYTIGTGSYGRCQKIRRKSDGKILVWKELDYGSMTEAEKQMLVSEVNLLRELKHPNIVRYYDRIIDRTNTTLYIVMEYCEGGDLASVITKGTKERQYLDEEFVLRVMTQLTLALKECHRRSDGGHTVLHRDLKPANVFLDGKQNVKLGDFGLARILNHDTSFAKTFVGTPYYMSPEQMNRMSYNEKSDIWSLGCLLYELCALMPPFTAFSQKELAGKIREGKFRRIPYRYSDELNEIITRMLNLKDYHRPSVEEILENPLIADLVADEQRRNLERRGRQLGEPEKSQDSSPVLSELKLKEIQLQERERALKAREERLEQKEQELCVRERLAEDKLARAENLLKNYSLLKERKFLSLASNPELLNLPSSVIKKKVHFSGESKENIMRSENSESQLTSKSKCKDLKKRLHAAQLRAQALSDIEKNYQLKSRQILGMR

STK17A (human) = STK17A (human) (UniProt Q9UEE5); conditions: compound 10.0 µM
GRK7 (human) = GRK7 (human) (UniProt Q8WTQ7); conditions: compound 10.0 µM
CSNK1G1 (human) = CSNK1G1 (human) (UniProt Q9HCP0); conditions: compound 10.0 µM
ULK2 (human) = ULK2 (human) (UniProt Q8IYT8); conditions: compound 10.0 µM
Chain of ULK2 (human) (Q8IYT8 whole entry, looked up): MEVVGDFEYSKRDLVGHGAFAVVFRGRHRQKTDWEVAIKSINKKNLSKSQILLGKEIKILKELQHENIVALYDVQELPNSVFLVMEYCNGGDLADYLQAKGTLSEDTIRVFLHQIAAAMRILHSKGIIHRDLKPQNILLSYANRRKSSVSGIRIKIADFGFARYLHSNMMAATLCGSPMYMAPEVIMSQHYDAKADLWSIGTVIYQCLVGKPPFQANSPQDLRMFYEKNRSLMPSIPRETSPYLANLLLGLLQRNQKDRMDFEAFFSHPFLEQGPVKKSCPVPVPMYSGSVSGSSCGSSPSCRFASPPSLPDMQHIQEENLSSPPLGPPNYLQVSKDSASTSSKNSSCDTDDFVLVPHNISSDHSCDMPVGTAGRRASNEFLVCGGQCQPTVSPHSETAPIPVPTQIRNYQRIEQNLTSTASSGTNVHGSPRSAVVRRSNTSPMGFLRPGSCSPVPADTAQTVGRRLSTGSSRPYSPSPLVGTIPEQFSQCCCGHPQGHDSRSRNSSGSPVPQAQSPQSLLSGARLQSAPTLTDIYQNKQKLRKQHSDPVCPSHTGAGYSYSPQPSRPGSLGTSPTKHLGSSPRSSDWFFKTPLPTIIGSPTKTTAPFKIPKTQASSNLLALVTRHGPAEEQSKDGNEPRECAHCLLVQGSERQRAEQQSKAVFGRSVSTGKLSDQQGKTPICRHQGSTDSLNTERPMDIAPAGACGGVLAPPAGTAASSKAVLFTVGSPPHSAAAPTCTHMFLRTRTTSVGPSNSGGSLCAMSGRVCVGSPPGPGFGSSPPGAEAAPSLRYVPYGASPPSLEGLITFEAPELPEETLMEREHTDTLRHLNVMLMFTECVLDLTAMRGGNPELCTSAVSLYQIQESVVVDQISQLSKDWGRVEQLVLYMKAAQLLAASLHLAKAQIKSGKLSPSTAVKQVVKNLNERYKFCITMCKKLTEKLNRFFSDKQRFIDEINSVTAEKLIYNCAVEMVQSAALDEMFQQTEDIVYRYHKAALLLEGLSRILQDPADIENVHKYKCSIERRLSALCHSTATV

MYO3B (human) = MYO3B (human) (UniProt Q8WXR4); conditions: compound 10.0 µM
BRSK2 (human) = BRSK2 (human) (UniProt Q8IWQ3); conditions: compound 10.0 µM
CASK (human) = CASK (human) (UniProt O14936); conditions: compound 10.0 µM
HIPK3 (human) = HIPK3 (human) (UniProt Q9H422); conditions: compound 10.0 µM
PRPF4B (human) = PRPF4B (human) (UniProt Q13523); conditions: compound 10.0 µM
CSNK2A1 (human) = CSNK2A1 (human) (UniProt P68400); conditions: compound 10.0 µM
Chain of CSNK2A1 (human) (P68400 whole entry, looked up): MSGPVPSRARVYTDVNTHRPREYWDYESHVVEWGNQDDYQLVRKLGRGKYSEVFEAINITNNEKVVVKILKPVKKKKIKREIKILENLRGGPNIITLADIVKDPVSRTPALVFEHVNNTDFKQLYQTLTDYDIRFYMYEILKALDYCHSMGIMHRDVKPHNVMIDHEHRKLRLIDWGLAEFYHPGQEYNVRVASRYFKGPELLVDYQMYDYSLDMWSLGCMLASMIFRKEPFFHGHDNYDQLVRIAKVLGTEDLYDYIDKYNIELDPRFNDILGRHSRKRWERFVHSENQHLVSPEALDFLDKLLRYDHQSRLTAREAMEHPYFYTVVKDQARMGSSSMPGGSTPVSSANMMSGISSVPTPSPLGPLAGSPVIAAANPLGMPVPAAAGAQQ

GAK (human) = GAK (human) (UniProt O14976); conditions: compound 10.0 µM
KIT (human) = KIT (human) (UniProt P10721); conditions: compound 10.0 µM
CDK18 (human) = CDK18 (human) (UniProt Q07002); conditions: compound 10.0 µM
CDK15 (human) = CDK15 (human) (UniProt Q96Q40); conditions: compound 10.0 µM
PIP5K1A (human) = PIP5K1A (human) (UniProt Q99755); conditions: compound 10.0 µM
TNK1 (human) = TNK1 (human) (UniProt Q13470)
Chain of TNK1 (human) (Q13470 whole entry, looked up): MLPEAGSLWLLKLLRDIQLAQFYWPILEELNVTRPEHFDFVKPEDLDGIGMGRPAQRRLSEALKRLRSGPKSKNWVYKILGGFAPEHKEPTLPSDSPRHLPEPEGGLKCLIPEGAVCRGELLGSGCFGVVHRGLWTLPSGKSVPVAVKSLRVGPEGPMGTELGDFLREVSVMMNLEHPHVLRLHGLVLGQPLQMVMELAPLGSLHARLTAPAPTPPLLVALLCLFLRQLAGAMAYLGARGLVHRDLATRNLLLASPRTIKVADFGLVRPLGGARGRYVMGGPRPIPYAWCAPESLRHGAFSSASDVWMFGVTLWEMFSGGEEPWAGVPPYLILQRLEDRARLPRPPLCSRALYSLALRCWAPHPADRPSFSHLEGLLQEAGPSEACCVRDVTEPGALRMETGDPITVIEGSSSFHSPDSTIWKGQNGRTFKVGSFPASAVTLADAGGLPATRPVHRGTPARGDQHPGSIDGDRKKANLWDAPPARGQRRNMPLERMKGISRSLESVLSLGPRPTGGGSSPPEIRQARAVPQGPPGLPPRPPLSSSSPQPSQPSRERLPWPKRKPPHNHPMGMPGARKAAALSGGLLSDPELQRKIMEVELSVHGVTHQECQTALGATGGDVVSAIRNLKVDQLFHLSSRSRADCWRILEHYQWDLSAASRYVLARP

EPHB6 (human) = EPHB6 (human) (UniProt O15197); conditions: compound 10.0 µM
MST4 (human) = MST4 (human) (UniProt Q9P289); conditions: compound 10.0 µM
MAP3K9 (human) = MAP3K9 (human) (UniProt P80192); conditions: compound 10.0 µM
PDGFRA (human) = PDGFRA (human) (UniProt P16234); conditions: compound 10.0 µM
[2] = tested on: KIT (human), P10721 [V559D/V654A]; conditions: compound 10.0 µM
MAP3K15 (human) = MAP3K15 (human) (UniProt Q6ZN16); conditions: compound 10.0 µM
Chain of MAP3K15 (human) (Q6ZN16 whole entry, looked up): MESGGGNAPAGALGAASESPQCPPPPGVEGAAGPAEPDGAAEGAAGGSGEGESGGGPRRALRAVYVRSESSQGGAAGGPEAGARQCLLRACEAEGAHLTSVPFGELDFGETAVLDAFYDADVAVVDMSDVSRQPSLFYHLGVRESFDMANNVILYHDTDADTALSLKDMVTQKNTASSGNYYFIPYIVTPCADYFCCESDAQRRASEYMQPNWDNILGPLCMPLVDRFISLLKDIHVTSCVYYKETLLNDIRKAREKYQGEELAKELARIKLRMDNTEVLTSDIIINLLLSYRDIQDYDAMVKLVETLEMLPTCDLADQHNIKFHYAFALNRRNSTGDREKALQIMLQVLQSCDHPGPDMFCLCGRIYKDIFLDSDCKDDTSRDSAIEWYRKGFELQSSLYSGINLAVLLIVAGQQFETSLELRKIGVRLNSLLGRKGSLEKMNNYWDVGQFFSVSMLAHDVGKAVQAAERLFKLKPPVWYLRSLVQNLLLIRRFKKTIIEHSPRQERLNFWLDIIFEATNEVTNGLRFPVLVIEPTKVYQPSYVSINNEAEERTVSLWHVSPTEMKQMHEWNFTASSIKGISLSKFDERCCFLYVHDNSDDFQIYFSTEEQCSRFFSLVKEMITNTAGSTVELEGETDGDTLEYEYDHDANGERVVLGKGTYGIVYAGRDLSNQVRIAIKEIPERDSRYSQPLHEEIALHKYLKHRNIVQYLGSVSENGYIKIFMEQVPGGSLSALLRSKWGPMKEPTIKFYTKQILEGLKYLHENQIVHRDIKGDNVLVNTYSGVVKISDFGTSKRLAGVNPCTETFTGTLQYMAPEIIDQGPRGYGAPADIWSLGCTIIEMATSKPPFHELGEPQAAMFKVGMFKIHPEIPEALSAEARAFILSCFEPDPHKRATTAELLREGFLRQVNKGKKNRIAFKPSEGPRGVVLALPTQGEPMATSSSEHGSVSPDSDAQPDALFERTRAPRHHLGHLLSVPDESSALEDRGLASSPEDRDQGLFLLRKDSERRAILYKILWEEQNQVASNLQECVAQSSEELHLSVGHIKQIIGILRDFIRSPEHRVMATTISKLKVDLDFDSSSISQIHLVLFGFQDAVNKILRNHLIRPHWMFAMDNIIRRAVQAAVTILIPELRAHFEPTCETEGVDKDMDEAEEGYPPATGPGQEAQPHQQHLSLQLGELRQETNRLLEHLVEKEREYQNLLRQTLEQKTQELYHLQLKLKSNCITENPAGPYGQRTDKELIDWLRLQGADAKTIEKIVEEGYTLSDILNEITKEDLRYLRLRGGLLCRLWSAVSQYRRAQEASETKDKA

CSNK2A2 (human) = CSNK2A2 (human) (UniProt P19784); conditions: compound 10.0 µM
Chain of CSNK2A2 (human) (P19784 whole entry, looked up): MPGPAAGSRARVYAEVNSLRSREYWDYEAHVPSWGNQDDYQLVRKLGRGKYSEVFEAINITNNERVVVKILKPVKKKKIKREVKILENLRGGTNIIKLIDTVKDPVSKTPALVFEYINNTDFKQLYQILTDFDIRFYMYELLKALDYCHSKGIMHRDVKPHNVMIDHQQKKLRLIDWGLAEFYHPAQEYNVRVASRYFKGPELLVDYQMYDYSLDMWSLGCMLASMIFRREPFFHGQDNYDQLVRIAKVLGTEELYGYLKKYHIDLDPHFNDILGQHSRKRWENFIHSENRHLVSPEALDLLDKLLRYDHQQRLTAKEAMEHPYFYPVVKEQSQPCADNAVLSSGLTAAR

MAPK8 (human) = MAPK8 (human) (UniProt P45983); conditions: compound 10.0 µM
PTK6 (human) = PTK6 (human) (UniProt Q13882); conditions: compound 10.0 µM
MAP3K13 (human) = MAP3K13 (human) (UniProt O43283); conditions: compound 10.0 µM
STK3 (human) = STK3 (human) (UniProt Q13188); conditions: compound 10.0 µM
AKT2 (human) = AKT2 (human) (UniProt P31751); conditions: compound 10.0 µM
PRKCD (human) = PRKCD (human) (UniProt Q05655); conditions: compound 10.0 µM
MAPKAPK5 (human) = MAPKAPK5 (human) (UniProt Q8IW41); conditions: compound 10.0 µM
Chain of MAPKAPK5 (human) (Q8IW41 whole entry, looked up): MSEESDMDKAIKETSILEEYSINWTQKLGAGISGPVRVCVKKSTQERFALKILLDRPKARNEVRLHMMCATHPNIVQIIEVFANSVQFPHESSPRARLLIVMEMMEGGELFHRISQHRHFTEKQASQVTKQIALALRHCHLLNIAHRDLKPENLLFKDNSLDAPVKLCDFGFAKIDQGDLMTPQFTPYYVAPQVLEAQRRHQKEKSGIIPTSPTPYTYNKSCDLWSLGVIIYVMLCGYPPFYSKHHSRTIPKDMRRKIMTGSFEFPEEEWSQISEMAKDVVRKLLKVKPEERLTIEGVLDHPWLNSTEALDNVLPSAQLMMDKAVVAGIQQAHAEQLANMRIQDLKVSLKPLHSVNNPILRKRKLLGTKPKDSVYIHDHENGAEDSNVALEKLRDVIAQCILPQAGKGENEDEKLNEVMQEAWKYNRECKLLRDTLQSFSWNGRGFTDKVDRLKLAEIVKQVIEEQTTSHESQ

[3] = tested on: EGFR (human), P00533 [L858R]; conditions: compound 10.0 µM
PIM1 (human) = PIM1 (human) (UniProt P11309); conditions: compound 10.0 µM
Chain of PIM1 (human) (P11309 whole entry, looked up): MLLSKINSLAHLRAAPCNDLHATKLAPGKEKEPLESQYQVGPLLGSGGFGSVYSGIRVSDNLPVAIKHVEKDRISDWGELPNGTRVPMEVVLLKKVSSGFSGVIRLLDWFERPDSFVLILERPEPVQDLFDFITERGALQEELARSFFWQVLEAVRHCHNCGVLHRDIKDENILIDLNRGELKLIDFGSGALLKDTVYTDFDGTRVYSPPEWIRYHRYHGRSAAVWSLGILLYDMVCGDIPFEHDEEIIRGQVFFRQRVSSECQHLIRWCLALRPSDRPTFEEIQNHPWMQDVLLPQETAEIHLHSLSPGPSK

MYLK4 (human) = MYLK4 (human) (UniProt Q86YV6); conditions: compound 10.0 µM

Question: `COc1cc(C(=O)N2CCC(N3CCN(C)CC3)CC2)ccc1Nc1ncc2c(n1)N(C)c1ccccc1C(=O)N2C` was tested. Which kinase still bound, per cent of control (PIK3C2G (human)) did it give?
Answer: 100%

Question: What about the residual activity (CDK3 (human)) of the same molecule?
Answer: 100%

Question: And the kinase still bound, per cent of control (PAK6 (human))?
Answer: 98%

Question: What about the residual activity (MAP3K12 (human)) of the same molecule?
Answer: 81%

Question: And the kinase still bound, per cent of control [1]?
Answer: 85%

Question: What about the kinase still bound, per cent of control (FGFR1 (human)) of the same molecule?
Answer: 86%

Question: What about the kinase still bound, per cent of control (TBK1 (human)) of the same molecule?
Answer: 97%

Question: And the kinase still bound, per cent of control (NEK2 (human))?
Answer: 100%

Question: What about the kinase still bound, per cent of control (STK17A (human)) of the same molecule?
Answer: 100%

Question: What about the kinase still bound, per cent of control (GRK7 (human)) of the same molecule?
Answer: 100%

Question: And the kinase still bound, per cent of control (CSNK1G1 (human))?
Answer: 100%

Question: What about the kinase still bound, per cent of control (ULK2 (human)) of the same molecule?
Answer: 67%

Question: What about the kinase still bound, per cent of control (MYO3B (human)) of the same molecule?
Answer: 83%

Question: What about the kinase still bound, per cent of control (BRSK2 (human)) of the same molecule?
Answer: 64%

Question: And the kinase still bound, per cent of control (CASK (human))?
Answer: 85%

Question: And the kinase still bound, per cent of control (HIPK3 (human))?
Answer: 89%

Question: And the kinase still bound, per cent of control (PRPF4B (human))?
Answer: 93%

Question: And the kinase still bound, per cent of control (CSNK2A1 (human))?
Answer: 100%

Question: What about the kinase still bound, per cent of control (GAK (human)) of the same molecule?
Answer: 16%

Question: What about the kinase still bound, per cent of control (KIT (human)) of the same molecule?
Answer: 100%

Question: What about the residual activity (CDK18 (human)) of the same molecule?
Answer: 100%

Question: And the residual activity (CDK15 (human))?
Answer: 100%

Question: And the kinase still bound, per cent of control (PIP5K1A (human))?
Answer: 90%

Question: What about the Kd (TNK1 (human)) of the same molecule?
Answer: 23 nM

Question: And the kinase still bound, per cent of control (TNK1 (human); compound 10.0 µM)?
Answer: 2.8%

Question: What about the kinase still bound, per cent of control (EPHB6 (human)) of the same molecule?
Answer: 31%

Question: And the kinase still bound, per cent of control (MST4 (human))?
Answer: 95%

Question: What about the kinase still bound, per cent of control (MAP3K9 (human)) of the same molecule?
Answer: 93%

Question: And the kinase still bound, per cent of control (PDGFRA (human))?
Answer: 100%

Question: What about the kinase still bound, per cent of control [2] of the same molecule?
Answer: 100%

Question: And the kinase still bound, per cent of control (MAP3K15 (human))?
Answer: 69%

Question: And the kinase still bound, per cent of control (CSNK2A2 (human))?
Answer: 93%

Question: And the kinase still bound, per cent of control (MAPK8 (human))?
Answer: 95%

Question: And the kinase still bound, per cent of control (PTK6 (human))?
Answer: 58%

Question: What about the kinase still bound, per cent of control (MAP3K13 (human)) of the same molecule?
Answer: 100%

Question: And the kinase still bound, per cent of control (STK3 (human))?
Answer: 71%

Question: And the kinase still bound, per cent of control (AKT2 (human))?
Answer: 100%

Question: And the kinase still bound, per cent of control (PRKCD (human))?
Answer: 75%

Question: What about the kinase still bound, per cent of control (MAPKAPK5 (human)) of the same molecule?
Answer: 97%

Question: What about the kinase still bound, per cent of control [3] of the same molecule?
Answer: 79%

Question: And the kinase still bound, per cent of control (PIM1 (human))?
Answer: 100%

Question: And the kinase still bound, per cent of control (MYLK4 (human))?
Answer: 80%
